The values below come from article PMC8301544, “A randomized, double‐blind, placebo‐ and positive‐controlled crossover study of the effects of durlobactam on cardiac repolarization in healthy subjects” (Clinical and Translational Science, 2021).

Data set [1] is described as follows: Plasma pharmacokinetics after single dose in healthy subjects (LC-MS/MS, noncompartmental analysis). It counts as in vivo, human. Here is the method:
Moxifloxacin was administered open‐label.
Plasma concentrations less than the lower limit of quantification were reported as 0. Plasma concentrations of durlobactam were determined by validated liquid chromatography with tandem mass spectrometry (LC‐MS/MS) assays operated in the negative ion mode (method number M8351072B) performed at Covance (Salt Lake City, UT). For durlobactam, the quantitation range was 5–5000 ng/ml. Moxifloxacin plasma concentrations were determined by LC‐MS/MS operated in the positive ion mode (method number 180M001.01) performed at Pharmaron ABS (Germantown, PA). The quantitation range was 1–1000 ng/ml.
PK parameters were determined with noncompartmental analysis using Phoenix WinNonlin (version 7.0 or higher), and PK parameters were compared with SAS version 9.3 or higher.

The test system of data set [2] is healthy subjects. The experiment in a line: Safety and tolerability (adverse events). It counts as in vivo, human. Conditions: for serious AEs, discontinuation for AEs, deaths: all treatment groups; for incidence of at least one AE: single dose durlobactam 4 g i.v. or moxifloxacin 400 mg oral. Here is the method: Safety was assessed from vital signs (systolic/diastolic blood pressure, HR, respiratory rate, and body temperature), physical examination, clinical laboratory tests (serum chemistry, hematology, and urinalysis), 12‐lead safety ECGs, and adverse events (AEs).

A short description of data set [3]: Single dose study in subjects with varying degrees of renal impairment. The note with it: severe renal impairment category (CLcr = 0-15 ml/min). It counts as in vivo, human.
In data set [4] the test system is healthy subjects.
Method: The relationship between durlobactam plasma concentration and change‐from‐baseline QTcF (ΔQTcF) was investigated by a linear mixed‐effects modeling approach with a treatment effect‐specific intercept. […] The geometric mean of the individual Cmax values for subjects on the active dose were determined.
Details of data set [5]: method as in PMID 32284380. The note with it: multiple dose regimen for 11 days, 1 g i.v. dose; cited from earlier work.
The conditions of data set [6]: patients with complicated urinary tract infection, durlobactam/sulbactam 1 g every 6 h for 7 days; cited from earlier work.
For data set [7] the following is noted: single dose, normal renal function; cited from earlier work.
In data set [8] the test system is class A, C, and D β-lactamases. Conditions: cited from earlier work.
Data set [9] relates to healthy subjects. The experiment in a line: Cardiodynamic evaluation, 12-lead 24-h Holter ECG (QTcF, HR, categorical outliers). Conditions: for mean placebo-corrected ΔHR (ΔΔHR) / placebo-corrected change from baseline QTcF (ΔΔQTcF): durlobactam 4 g i.v.; for placebo-corrected change from baseline QTcF (ΔΔQTcF): mean ± spread (90% CI); for subjects with QTcF greater than 450 ms and less than or equal to 480 ms: single dose durlobactam 4 g i.v. or moxifloxacin 400 mg oral.
Method: This was a partially double‐blind study in healthy adult subjects, which was conducted as a placebo‐ and active‐controlled, single‐infusion, three‐way crossover study. […] Study treatments were administered in the fasted state on day 1 of each treatment period. A 7 (±2) day washout period occurred between successive treatments. Subjects, investigator, and sponsor were blinded to durlobactam and placebo treatment assignment. Moxifloxacin was administered open‐label.
Variables associated with the primary ECG end point, placebo‐corrected change‐from‐baseline QTcF (ΔΔQTcF), were computed from means of measurements made on multiple replicate ECGs extracted at scheduled timepoints from Holter 12‐lead ECG data. Holter 12‐lead ECGs were read centrally (ERT, Rochester, NY). ECG end points included change‐from‐baseline HR, QTcF, PR, and QRS (ΔHR, ΔQTcF, ΔPR, and ΔQRS); placebo‐corrected change‐from‐baseline HR, PR, and QRS (ΔΔHR, ΔΔPR, and ΔΔQRS); categorical outliers for QTcF, HR, PR, and QRS; and frequency of treatment‐emergent changes of T‐wave morphology and U‐wave presence.
During each treatment period, 12‐lead, 24‐h Holter ECGs were continuously recorded and evaluated by a central ECG laboratory.

Read-outs that look alike come from different tables or passages of the source.

One may read the Cmax as the highest concentration seen after dosing. The AUC(0-inf) is total exposure, with the tail of the curve extrapolated. One may read the clearance as a measure of how efficiently the substance is removed, as volume per time. One may read the half-life as how long it takes for the measured level to halve.

Take `CC1=C[C@@H]2CN(C(=O)N2OS(=O)(=O)O)[C@@H]1C(N)=O` [durlobactam]: the “Vz (volume of distribution)” value in [1] (durlobactam 4 g single 3-h i.v. infusion, n = 31, mean) is 33.6 ± 5.2 L. Moreover, the Tmax in data set [1] (durlobactam 4 g single 3-h i.v. infusion, n = 31, mean, after start of infusion) is 3.1 ± 0.32 h; in [1] (human, plasma, iv, 4 g, durlobactam 4 g single 3-h i.v. infusion, n = 31, mean, after start of infusion, read-out: Tmax), roughly 3 h. Also, the maximum concentration (Cmax) in [1] (human, plasma, iv, 4 g, durlobactam 4 g single 3-h i.v. infusion, healthy subjects, n = 31, mean, read-out: Cmax) is 108 µg/mL; in [1] (human, plasma, iv, 4 g, durlobactam 4 g single 3-h i.v. infusion, read-out: observed geometric mean Cmax), 106 µg/mL; in data set [5], 28.1 µg/mL; in [6], 39,900 ng/ml; in data set [7], 27,000 ng/ml. For the same molecule, the Vd in [1] (human, plasma, iv, 4 g, durlobactam 4 g single 3-h i.v. infusion, n = 31, mean, read-out: Vz (volume of distribution)) is 33.6 L. Moreover, in data set [1] (human, plasma, iv, durlobactam 4 g single 3-h i.v. infusion, n = 31, mean), the AUC(0-inf) came to 413 µg·h/mL. The AUC(0-t) in [1] (human, plasma, iv, durlobactam 4 g single 3-h i.v. infusion, n = 31, mean, read-out: AUC0-24) was determined as 413 µg·h/mL. For the same molecule, the clearance in [1] (human, plasma, iv, durlobactam 4 g single 3-h i.v. infusion, n = 31, mean, read-out: CL (total body clearance) (converted)) is roughly 165 mL/min. For the same molecule, the half-life in [1] (human, plasma, iv, durlobactam 4 g single 3-h i.v. infusion, read-out: mean apparent half-life (converted)) is 2.3 h. For the same molecule, the “fold increase of mean Cmax (4 g dose) above maximum Cmax predicted with a 1 g dose” value is roughly 3.2 fold in [1] (patients with normal renal function) and roughly 1.5 fold in data set [1] (patients with severe renal impairment). Also, the “serious AEs, discontinuation for AEs, deaths” value with healthy subjects [2] is on record as “No serious AEs, discontinuation for AEs, or deaths occurred”. Further, the “incidence of fatigue (AE)” value in the data set on healthy subjects [2] (durlobactam 4 g i.v., 2 subjects) was 6.5%. Besides, the “incidence of at least one AE” value in the data set on healthy subjects [2] is given as 19.4%. Besides, the “estimated Cmax from linear regression of dose normalized Cmax versus creatinine clearance” value in [3] is given as 60,000 ng/ml. Further, the “plasma concentration up to which an effect on ΔΔQTcF exceeding 10 ms was excluded” value with healthy subjects [4] (durlobactam) was ~190,000 ng/ml. Moreover, the “effect on ECG parameters including QT interval prolongation (C-QT analysis)” value in the data set on healthy subjects [4] (durlobactam 4 g i.v. over 3 h) was “no significant effect”. For the same molecule, in the data set on healthy subjects [4] (durlobactam, planned dose of 1 g), the “fold of excluded concentration (190,000 ng/ml) over therapeutic plasma concentrations” value was “over 3 fold”. In addition, the treatment effect-specific intercept in the data set on healthy subjects [4] (durlobactam, not statistically significant) worked out at 0.6 ms. For the same molecule, the “estimated slope of the plasma concentration-QTc relationship” value in the data set on healthy subjects [4] (durlobactam, not statistically significant, 90% CI -0.0000232 to 0.0000194) is on record as −0.0000019 ms per ng/ml. In data set [8], the β-lactamase inhibition result is “inhibits class A, C, and D β‐lactamases”. Further, the “mean placebo-corrected ΔHR (ΔΔHR)” value is listed as −2.6 bpm in the data set with healthy subjects [9] (3 h post-start-of-infusion) and −0.2 bpm in the data set on healthy subjects [9] (4 h post-start-of-infusion). Moreover, the “placebo-corrected change from baseline QTcF (ΔΔQTcF)” value in the data set on healthy subjects [9] (6 h) was 1.8 ms; in the data set on healthy subjects [9] (8 h) it was 1.8 ms; with healthy subjects [9] (24 h) it was 0.0 ms. Further, the “effect on HR” value with healthy subjects [9] (durlobactam 4 g supratherapeutic dose) is on record as “no clinically relevant effect on HR”. Moreover, in the data set on healthy subjects [9], the “subjects with QTcF greater than 450 ms and less than or equal to 480 ms” value was determined as 3.2%.
In the case of `COc1c(N2C[C@@H]3CCCN[C@@H]3C2)c(F)cc2c(=O)c(C(=O)O)cn(C3CC3)c12` [moxifloxacin, reference compound], the Cmax in data set [1] (human, plasma, po, 400 mg, moxifloxacin single 400 mg oral dose, read-out: mean Cmax) was determined as 2.18 µg/mL. Moreover, in data set [1] (human, plasma, po, 400 mg, moxifloxacin single 400 mg oral dose, read-out: time to peak plasma concentration), the Tmax is roughly 1.9 h. Also, the AUC(0-t) in data set [1] (human, plasma, moxifloxacin single 400 mg oral dose, read-out: mean AUC0-last) was 22.6 µg·h/mL. Further, the “geometric mean peak concentration” value in data set [1] (moxifloxacin single 400 mg oral dose) is reported as 2103.4 ng/mL. In the data set with healthy subjects [2], the “serious AEs, discontinuation for AEs, deaths” value was “No serious AEs, discontinuation for AEs, or deaths occurred” and the “incidence of at least one AE” value is 22.6%. In addition, in the data set with healthy subjects [4] (human, in vivo), the “slope of the concentration-QTc relationship” value came to 0.0065 ms per ng/ml and the treatment effect-specific intercept amounted to 0.4 ms. Further, in the data set with healthy subjects [9], the “subjects with QTcF greater than 450 ms and less than or equal to 480 ms” value is 6.5%. The “subjects with ΔQTcF greater than 30 ms and less than or equal to 60 ms” value in the data set on healthy subjects [9] (single dose moxifloxacin 400 mg oral) was 6.5%.
